Measurements reported in US8802597B2, “Herbicidal pyrimidines” (E I du Pont de Nemours and Company, priority 2003, dated 2014).

How the values were obtained:
Format in all cases: in vivo
[1] = tested on: morningglory (Ipomoea coccinea); assay: Test B pre/postemergence
Summary of the method: (§1)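 Under greenhouse conditions, seeded pots and young plants (1- to 4-leaf, 2 to 18 cm) were treated at the same time with test chemicals in a non-phytotoxic solvent mixture containing surfactant. Response was assessed visually after 13 to 15 days, from 0 (no effect) to 100 (complete control).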

[2] = tested on: Surinam grass (Brachiaria decumbens); assay: Test B pre/postemergence
Summary of the method: as §1

[3] = tested on: wheat (Triticum aestivum); assay: Test B pre/postemergence
Summary of the method: as §1

[4] = tested on: giant foxtail (Setaria faberii); assay: Test B pre/postemergence
Summary of the method: as §1

corn (Zea mays) = assay: Test B pre/postemergence
Summary of the method: as §1

[5] = tested on: lambsquarters (Chenopodium album); assay: Test B pre/postemergence
Summary of the method: as §1

[6] = tested on: velvetleaf (Abutilon theophrasti); assay: Test B pre/postemergence
Summary of the method: as §1

[7] = tested on: pigweed (Amaranthus retroflexus); assay: Test B pre/postemergence
Summary of the method: as §1

[8] = tested on: crabgrass (Digitaria sanguinalis); assay: Test B pre/postemergence
Summary of the method: as §1

[9] = tested on: cocklebur (Xanthium strumarium); assay: Test B pre/postemergence
Summary of the method: as §1

[10] = tested on: barnyardgrass (Echinochloa crus-galli); assay: Test B pre/postemergence
Summary of the method: as §1

wild oat (Avena fatua) = assay: Test B postemergence; conditions: for Oat, Wild plant response rating: 125 g ai/ha, scale 0 to 100 (0 no effect, 100 complete control); for Plant response rating, Oat, Wild: 500 g ai/ha, scale 0 to 100
Summary of the method: as §1

[11] = tested on: blackgrass (Alopecurus myosuroides); assay: Test B postemergence; conditions: for Blackgrass plant response rating: 125 g ai/ha, scale 0 to 100 (0 no effect, 100 complete control); for Plant response rating, Blackgrass: 500 g ai/ha, scale 0 to 100
Summary of the method: as §1

[12] = tested on: duck salad (Heteranthera limosa); assay: Test B flooded paddy test; conditions: Flood, 1000 g ai/ha; scale 0 to 100
Summary of the method: (§2)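 Visual injury scoring (0 = no effect, 100 = complete control) versus controls made 13 to 15 days after treatment in the greenhouse. Test species were grown in flooded paddy to the 2-leaf stage: rice, barnyardgrass, umbrella sedge, duck salad.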

rice (Oryza sativa) = assay: Test B flooded paddy test; conditions: Flood, 1000 g ai/ha; scale 0 to 100
Summary of the method: as §2

[13] = tested on: umbrella sedge (Cyperus difformis); assay: Test B flooded paddy test; conditions: Flood, 1000 g ai/ha; scale 0 to 100
Summary of the method: as §2

[14] = tested on: barnyardgrass (Echinochloa crus-galli); assay: Test B flooded paddy test; conditions: Flood, 1000 g ai/ha; scale 0 (no effect) to 100 (complete control)
Summary of the method: as §2

[15] = Postemergence, 125 g ai/ha, scale 0 to 100 (0 no effect, 100 complete control)
[16] = Postemergence, 500 g ai/ha, scale 0 to 100
[17] = Preemergence, 125 g ai/ha, scale 0 to 100 (0 no effect, 100 complete control)
[18] = Preemergence, 500 g ai/ha, scale 0 to 100 (0 no effect, 100 complete control)

COC(=O)c1nc(C2CC2)nc(N=CN(C)C)c1Br [Compound 19]
Morningglory plant response rating [1, 15]: 100 | Plant response rating, Morningglory [1, 16]: 100 | Plant response rating, Morningglory [1, 17]: 90 | Morningglory plant response rating [1, 18]: 100 | Surinam Grass plant response rating [2, 15]: 40 | Plant response rating, Surinam Grass [2, 16]: 90 | Plant response rating, Surinam Grass [2, 17]: 60 | Surinam Grass plant response rating [2, 18]: 90 | Wheat plant response rating [3, 15]: 20 | Plant response rating, Wheat [3, 16]: 60 | Plant response rating, Wheat [3, 17]: 50 | Wheat plant response rating [3, 18]: 60 | Foxtail, Giant plant response rating [4, 15]: 20 | Plant response rating, Foxtail, Giant [4, 16]: 80 | Plant response rating, Foxtail, Giant [4, 17]: 20 | Foxtail, Giant plant response rating [4, 18]: 80 | Corn plant response rating (corn (Zea mays); [15]): 30 | Plant response rating, Corn (corn (Zea mays); [16]): 70 | Plant response rating, Corn (corn (Zea mays); [17]): 70 | Corn plant response rating (corn (Zea mays); [18]): 90 | Lambsquarters plant response rating [5, 15]: 100 | Plant response rating, Lambsquarters [5, 16]: 100 | Plant response rating, Lambsquarters [5, 17]: 100 | Lambsquarters plant response rating [5, 18]: 100 | Velvetleaf plant response rating [6, 15]: 70 | Plant response rating, Velvetleaf [6, 16]: 100 | Plant response rating, Velvetleaf [6, 17]: 90 | Velvetleaf plant response rating [6, 18]: 100 | Pigweed plant response rating [7, 15]: 90 | Plant response rating, Pigweed [7, 16]: 100 | Plant response rating, Pigweed [7, 17]: 90 | Pigweed plant response rating [7, 18]: 100 | Crabgrass plant response rating [8, 15]: 40 | Plant response rating, Crabgrass [8, 16]: 80 | Plant response rating, Crabgrass [8, 17]: 80 | Crabgrass plant response rating [8, 18]: 90 | Cocklebur plant response rating [9, 15]: 90 | Plant response rating, Cocklebur [9, 16]: 100 | Plant response rating, Cocklebur [9, 17]: 90 | Cocklebur plant response rating [9, 18]: 100 | Barnyardgrass plant response rating [10, 15]: 80 | Plant response rating, Barnyardgrass [10, 16]: 90 | Plant response rating, Barnyardgrass [10, 17]: 40 | Barnyardgrass plant response rating [10, 18]: 90 | Oat, Wild plant response rating (wild oat (Avena fatua)): 40 | Plant response rating, Oat, Wild (wild oat (Avena fatua)): 70 | Blackgrass plant response rating [11]: 60 | Plant response rating, Blackgrass [11]: 80 | Plant response rating, Ducksalad [12]: 80 | Plant response rating, Rice (rice (Oryza sativa)): 60 | Plant response rating, Sedge, Umbrella [13]: 70 | Plant response rating, Barnyardgrass [14]: 80

CCOC(=O)C(OC(C)=O)c1nc(C2CC2)nc(N)c1Br (centres unmarked) [Compound 47]
Morningglory plant response rating [1, 15]: 80 | Plant response rating, Morningglory [1, 16]: 90 | Plant response rating, Morningglory [1, 17]: 80 | Morningglory plant response rating [1, 18]: 100 | Surinam Grass plant response rating [2, 15]: 0 | Plant response rating, Surinam Grass [2, 16]: 20 | Plant response rating, Surinam Grass [2, 17]: 0 | Surinam Grass plant response rating [2, 18]: 20 | Wheat plant response rating [3, 15]: 0 | Plant response rating, Wheat [3, 16]: 0 | Plant response rating, Wheat [3, 17]: 20 | Plant response rating, Wheat [3, 18]: 50 | Foxtail, Giant plant response rating [4, 15]: 10 | Plant response rating, Foxtail, Giant [4, 16]: 50 | Plant response rating, Foxtail, Giant [4, 17]: 20 | Foxtail, Giant plant response rating [4, 18]: 40 | Corn plant response rating (corn (Zea mays); [15]): 0 | Plant response rating, Corn (corn (Zea mays); [16]): 0 | Plant response rating, Corn (corn (Zea mays); [17]): 0 | Corn plant response rating (corn (Zea mays); [18]): 30 | Lambsquarters plant response rating [5, 15]: 80 | Plant response rating, Lambsquarters [5, 16]: 90 | Plant response rating, Lambsquarters [5, 17]: 90 | Lambsquarters plant response rating [5, 18]: 100 | Velvetleaf plant response rating [6, 15]: 20 | Plant response rating, Velvetleaf [6, 16]: 40 | Plant response rating, Velvetleaf [6, 17]: 60 | Velvetleaf plant response rating [6, 18]: 90 | Pigweed plant response rating [7, 15]: 70 | Plant response rating, Pigweed [7, 16]: 80 | Plant response rating, Pigweed [7, 17]: 80 | Pigweed plant response rating [7, 18]: 90 | Crabgrass plant response rating [8, 15]: 10 | Plant response rating, Crabgrass [8, 16]: 60 | Plant response rating, Crabgrass [8, 17]: 20 | Crabgrass plant response rating [8, 18]: 90 | Cocklebur plant response rating [9, 15]: 90 | Plant response rating, Cocklebur [9, 16]: 100 | Plant response rating, Cocklebur [9, 17]: 80 | Cocklebur plant response rating [9, 18]: 90 | Barnyardgrass plant response rating [10, 15]: 20 | Plant response rating, Barnyardgrass [10, 16]: 60 | Plant response rating, Barnyardgrass [10, 17]: 0 | Barnyardgrass plant response rating [10, 18]: 40 | Oat, Wild plant response rating (wild oat (Avena fatua)): 0 | Plant response rating, Oat, Wild (wild oat (Avena fatua)): 0 | Blackgrass plant response rating [11]: 0 | Plant response rating, Blackgrass [11]: 0 | Plant response rating, Ducksalad [12]: 80 | Plant response rating, Rice (rice (Oryza sativa)): 0 | Plant response rating, Sedge, Umbrella [13]: 70 | Plant response rating, Barnyardgrass [14]: 0
